A value given as a limit tells only on which side of the number the result lay.

Holding throughout (assay type): ADME
One series deals with T1, Cytochrome P450 2A6 (Homo sapiens, UniProt P11509).
T1 sequence (P11509 whole entry): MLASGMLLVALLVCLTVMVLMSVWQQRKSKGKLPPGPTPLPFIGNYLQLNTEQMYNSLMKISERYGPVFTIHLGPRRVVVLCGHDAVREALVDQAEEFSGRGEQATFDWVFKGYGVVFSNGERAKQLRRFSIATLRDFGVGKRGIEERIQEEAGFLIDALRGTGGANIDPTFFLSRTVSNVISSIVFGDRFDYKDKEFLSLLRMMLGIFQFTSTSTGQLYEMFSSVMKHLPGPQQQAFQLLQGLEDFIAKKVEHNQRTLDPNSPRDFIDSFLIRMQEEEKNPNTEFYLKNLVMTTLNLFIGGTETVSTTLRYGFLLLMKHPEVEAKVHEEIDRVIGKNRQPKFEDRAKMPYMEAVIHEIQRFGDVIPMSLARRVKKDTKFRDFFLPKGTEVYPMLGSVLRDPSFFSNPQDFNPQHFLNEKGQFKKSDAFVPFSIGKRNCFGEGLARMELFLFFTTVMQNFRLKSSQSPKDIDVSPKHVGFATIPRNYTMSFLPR
Briefly: Inhibition of CYP2A6 in human liver microsomes assessed as enzyme-mediated metabolite formation using coumarin as substrate incubated for 5 mins followed by NADPH addition measured after 30 mins by LC-MS/MS analysis.

Series [1] deals with T2, CYP2C8 (Homo sapiens, UniProt P10632).
T2 sequence (P10632 whole entry): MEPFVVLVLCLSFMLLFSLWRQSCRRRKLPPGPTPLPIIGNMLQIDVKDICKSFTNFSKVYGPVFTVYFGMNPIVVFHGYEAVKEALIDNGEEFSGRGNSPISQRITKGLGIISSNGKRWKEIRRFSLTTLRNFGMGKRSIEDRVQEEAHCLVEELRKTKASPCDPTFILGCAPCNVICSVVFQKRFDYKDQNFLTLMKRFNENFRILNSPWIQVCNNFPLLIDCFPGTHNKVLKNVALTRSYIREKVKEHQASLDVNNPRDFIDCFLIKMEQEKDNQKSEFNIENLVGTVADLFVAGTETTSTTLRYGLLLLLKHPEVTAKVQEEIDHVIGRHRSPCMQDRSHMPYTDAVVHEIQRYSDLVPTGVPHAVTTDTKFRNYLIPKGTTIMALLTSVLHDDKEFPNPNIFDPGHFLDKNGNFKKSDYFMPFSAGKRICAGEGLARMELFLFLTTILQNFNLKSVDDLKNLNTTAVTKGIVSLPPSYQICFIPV
Briefly: Inhibition of CYP2C8 in human liver microsomes assessed as enzyme-mediated metabolite formation at 3 uM using paclitaxel as substrate incubated for 5 mins followed by NADPH addition measured after 30 mins by LC-MS/MS analysis relative to control. Also noted: scale not given: the % may be the effect or the level left. Conditions: probe paclitaxel, read-out: Activity. Background: Liver microsomes are a subcellular fraction often used to study metabolism.

Series [2] concerns the target T2, CYP2C8. Briefly: Inhibition of CYP2C8 in human liver microsomes assessed as enzyme-mediated metabolite formation at 30 uM using paclitaxel as substrate incubated for 5 mins followed by NADPH addition measured after 30 mins by LC-MS/MS analysis relative to control. To be noted: probe paclitaxel, read-out: Activity. Also noted: scale not given: the % may be the effect or the level left.

For series [3], the target named is T3, CYP2C9 (Homo sapiens, UniProt P11712). Briefly: Inhibition of CYP2C9 in human liver microsomes assessed as enzyme-mediated metabolite formation at 0.1 uM using diclofenac as substrate incubated for 5 mins followed by NADPH addition measured after 30 mins by LC-MS/MS analysis relative to control. To be noted: probe diclofenac, read-out: Activity. Also noted: scale not given: the % may be the effect or the level left.

The target in series [4] is T4, CYP2D6 (Homo sapiens, UniProt P10635). Briefly: Inhibition of CYP2D6 in human liver microsomes assessed as enzyme-mediated metabolite formation at 0.3 uM using dextromethorphan as substrate incubated for 5 mins followed by NADPH addition measured after 30 mins by LC-MS/MS analysis relative to control. Also noted: scale not given: the % may be the effect or the level left. Conditions: probe dextromethorphan, read-out: Activity.

Series [5] deals with T5, CYP2A6 (Homo sapiens, UniProt P11509).
T5 sequence (P11509 whole entry): T1 sequence (P11509 whole entry)
Briefly: Inhibition of CYP2A6 in human liver microsomes assessed as enzyme-mediated metabolite formation at 3 uM using coumarin as substrate preincubated for 20 mins followed by substrate addition measured after 30 mins in presence of NADPH by LC-MS/MS analysis relative to control. The arrangement: scale not given: the % may be the effect or the level left. Conditions: probe coumarin, read-out: Activity.

For series [6], the target named is T5, CYP2A6. Briefly: Inhibition of CYP2A6 in human liver microsomes assessed as enzyme-mediated metabolite formation at 30 uM using coumarin as substrate preincubated for 20 mins followed by substrate addition measured after 30 mins in presence of NADPH by LC-MS/MS analysis relative to control. The arrangement: scale not given: the % may be the effect or the level left. To be noted: probe coumarin, read-out: Activity.

The target in series [7] is T3, CYP2C9. Briefly: Inhibition of CYP2C9 in human liver microsomes assessed as enzyme-mediated metabolite formation at 0.3 uM using diclofenac as substrate preincubated for 20 mins followed by substrate addition measured after 30 mins in presence of NADPH by LC-MS/MS analysis relative to control. The arrangement: scale not given: the % may be the effect or the level left. Conditions: probe diclofenac, read-out: Activity.

The target of series [8] is T4, CYP2D6. Briefly: Inhibition of CYP2D6 in human liver microsomes assessed as enzyme-mediated metabolite formation at 0.3 uM using dextromethorphan as substrate preincubated for 20 mins followed by substrate addition measured after 30 mins in presence of NADPH by LC-MS/MS analysis relative to control. The arrangement: scale not given: the % may be the effect or the level left. To be noted: probe dextromethorphan, read-out: Activity.

Series [9] addresses T6, CYP3A4 (Homo sapiens, UniProt P08684). Briefly: Inhibition of CYP3A4 in human liver microsomes assessed as enzyme-mediated metabolite formation at 0.1 uM using testosterone as substrate preincubated for 20 mins followed by substrate addition measured after 30 mins in presence of NADPH by LC-MS/MS analysis relative to control. Conditions: probe testosterone, read-out: Activity. Also noted: scale not given: the % may be the effect or the level left.

Series [10] addresses T6, CYP3A4. Briefly: Inhibition of CYP3A4 in human liver microsomes assessed as enzyme-mediated metabolite formation at 10 uM using testosterone as substrate preincubated for 20 mins followed by substrate addition measured after 30 mins in presence of NADPH by LC-MS/MS analysis relative to control. The arrangement: scale not given: the % may be the effect or the level left. Conditions: probe testosterone, read-out: Activity.

The next series addresses T7, Cytochrome P450 1A2 (Homo sapiens, UniProt P05177).
T7 sequence (P05177 whole entry): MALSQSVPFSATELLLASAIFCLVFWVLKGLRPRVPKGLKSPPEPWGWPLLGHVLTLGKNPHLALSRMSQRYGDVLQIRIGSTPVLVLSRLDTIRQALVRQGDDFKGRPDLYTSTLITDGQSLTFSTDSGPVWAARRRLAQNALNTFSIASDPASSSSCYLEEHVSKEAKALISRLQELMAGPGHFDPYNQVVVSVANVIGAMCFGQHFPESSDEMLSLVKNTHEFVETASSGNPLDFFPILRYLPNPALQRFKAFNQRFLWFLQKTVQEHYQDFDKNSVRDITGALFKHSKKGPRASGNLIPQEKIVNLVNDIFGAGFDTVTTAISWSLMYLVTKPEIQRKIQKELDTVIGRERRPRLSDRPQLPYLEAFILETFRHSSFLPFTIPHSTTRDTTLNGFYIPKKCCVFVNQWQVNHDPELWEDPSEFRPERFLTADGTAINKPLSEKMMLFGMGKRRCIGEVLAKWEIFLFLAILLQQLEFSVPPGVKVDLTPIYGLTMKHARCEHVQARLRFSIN
Briefly: Inhibition of human CYP1A2 using phenacetin as substrate incubated for 5 mins followed by NADPH addition measured after 30 mins by LC-MS/MS analysis.

T3 sequence (P11712 whole entry): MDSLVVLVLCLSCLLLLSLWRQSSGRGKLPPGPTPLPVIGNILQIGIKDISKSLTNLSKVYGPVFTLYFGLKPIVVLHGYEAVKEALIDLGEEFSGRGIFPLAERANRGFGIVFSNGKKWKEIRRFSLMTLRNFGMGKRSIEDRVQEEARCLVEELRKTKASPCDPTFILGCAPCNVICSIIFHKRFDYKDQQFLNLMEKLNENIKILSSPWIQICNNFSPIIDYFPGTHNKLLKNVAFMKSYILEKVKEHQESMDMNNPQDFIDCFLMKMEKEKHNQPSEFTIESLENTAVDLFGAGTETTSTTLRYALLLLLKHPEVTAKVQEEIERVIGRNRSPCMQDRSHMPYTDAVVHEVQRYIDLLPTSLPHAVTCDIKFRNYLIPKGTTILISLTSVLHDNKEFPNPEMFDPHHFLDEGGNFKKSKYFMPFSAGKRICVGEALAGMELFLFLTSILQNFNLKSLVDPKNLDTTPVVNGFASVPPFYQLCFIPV
T6 sequence (P08684 whole entry): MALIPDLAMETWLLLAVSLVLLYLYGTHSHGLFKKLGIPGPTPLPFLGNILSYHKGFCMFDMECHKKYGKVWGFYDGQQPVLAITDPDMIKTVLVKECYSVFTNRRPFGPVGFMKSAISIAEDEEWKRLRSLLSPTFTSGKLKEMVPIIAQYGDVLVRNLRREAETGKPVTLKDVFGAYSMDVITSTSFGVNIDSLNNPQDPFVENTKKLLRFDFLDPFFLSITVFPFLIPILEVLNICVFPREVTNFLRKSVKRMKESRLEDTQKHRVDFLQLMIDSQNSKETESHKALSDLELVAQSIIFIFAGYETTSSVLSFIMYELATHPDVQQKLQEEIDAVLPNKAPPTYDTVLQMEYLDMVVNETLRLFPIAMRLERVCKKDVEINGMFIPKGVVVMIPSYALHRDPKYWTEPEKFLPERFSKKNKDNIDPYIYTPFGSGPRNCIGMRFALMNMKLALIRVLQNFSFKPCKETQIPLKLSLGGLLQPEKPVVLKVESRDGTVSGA
T4 sequence (P10635 whole entry): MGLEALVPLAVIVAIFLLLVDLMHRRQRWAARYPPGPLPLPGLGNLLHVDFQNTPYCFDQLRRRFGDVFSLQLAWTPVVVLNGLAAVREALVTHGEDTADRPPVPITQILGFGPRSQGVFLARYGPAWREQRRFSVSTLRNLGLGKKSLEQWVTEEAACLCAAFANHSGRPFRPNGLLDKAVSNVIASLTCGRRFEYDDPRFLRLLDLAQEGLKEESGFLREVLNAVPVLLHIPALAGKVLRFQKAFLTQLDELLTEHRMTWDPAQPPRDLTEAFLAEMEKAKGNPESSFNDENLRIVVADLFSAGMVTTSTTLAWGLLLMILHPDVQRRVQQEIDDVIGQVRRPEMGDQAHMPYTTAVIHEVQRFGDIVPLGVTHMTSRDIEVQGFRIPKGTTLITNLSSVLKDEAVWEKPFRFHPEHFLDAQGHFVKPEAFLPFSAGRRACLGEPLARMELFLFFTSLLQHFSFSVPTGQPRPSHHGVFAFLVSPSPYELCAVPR

As for `CCCCCCCC(=O)CCc1ccc(O)c(OC)c1`, the IC50 at Cytochrome P450 2A6 is over 30 µM; against Cytochrome P450 1A2, 21.4 µM. Further, the activity at 0.5 h, 3 µM at CYP2C8 [1] came out at 58.7%; on CYP2A6 [5], 104%. For the same molecule, the figures for the activity at 0.5 h, 30 µM on CYP2C8 [2] and at CYP2A6 [6] were 35.5% and 79.9%, respectively. The values for the activity at 0.5 h, 0.1 µM on CYP2C9 [3] and at CYP3A4 [9] were 120% and 93.4%, respectively. Moreover, the activity at 0.5 h, 0.3 µM was determined as 76% on CYP2D6 [4], 72.6% at CYP2C9 [7] and 87% on CYP2D6 [8]. For the same molecule, the activity at 0.5 h, 10 µM on CYP3A4 [10] worked out at 83.6%. Further, at Cytochrome P450 1A2 (human, 0.5 h), the “inhibition (INH)” value was “Dose-dependent effect”.

The IC50 is the concentration that inhibits the measured activity by half.
